In US8063071B2 (GlaxoSmithKline, LLC, priority 2007, dated 2011):
Structures can show the parent of a compound that is named as a salt.

Experiments:
[1] = molecular target: T1, Recombinant human IKKβ (residues 1-737) (Homo sapiens, UniProt O14920); experiment: IKK2 assay (TR-FRET); format: biochemical; conditions: ATP 1 μM final, read-out: pIC50 against IKK2 (converted)
T1 construct: Recombinant human IKKβ (residues 1-737); GST (C); made in house
T1 sequence (O14920 1-737): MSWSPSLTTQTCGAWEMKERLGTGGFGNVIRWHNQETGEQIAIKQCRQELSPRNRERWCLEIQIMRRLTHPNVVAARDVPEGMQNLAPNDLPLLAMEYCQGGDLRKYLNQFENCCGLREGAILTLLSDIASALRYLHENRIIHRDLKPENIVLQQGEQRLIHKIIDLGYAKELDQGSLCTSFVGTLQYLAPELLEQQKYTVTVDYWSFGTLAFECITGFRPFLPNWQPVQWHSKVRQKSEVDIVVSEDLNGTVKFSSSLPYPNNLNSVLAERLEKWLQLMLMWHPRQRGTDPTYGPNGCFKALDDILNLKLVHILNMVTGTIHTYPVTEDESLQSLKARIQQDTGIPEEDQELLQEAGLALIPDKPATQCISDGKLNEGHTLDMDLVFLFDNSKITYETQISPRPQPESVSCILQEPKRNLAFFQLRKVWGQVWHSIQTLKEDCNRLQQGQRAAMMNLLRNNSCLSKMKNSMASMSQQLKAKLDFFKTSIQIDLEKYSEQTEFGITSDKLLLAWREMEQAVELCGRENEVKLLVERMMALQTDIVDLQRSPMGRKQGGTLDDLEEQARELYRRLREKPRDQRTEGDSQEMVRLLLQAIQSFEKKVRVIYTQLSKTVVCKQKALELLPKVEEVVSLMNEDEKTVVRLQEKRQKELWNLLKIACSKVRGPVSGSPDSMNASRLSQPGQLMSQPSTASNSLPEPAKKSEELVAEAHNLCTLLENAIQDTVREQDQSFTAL
Method in brief: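 TR-FRET readout (665 nm over 620 nm Eu reference) of GST-IB Ser32/36 phosphorylation after 60 min detection. Reaction: 1 μM ATP, 25 nM substrate, 0.5-5 nM GST-fused IKKβ 1-737 from baculovirus, pH 7.4 HEPES buffer, 1.7% DMSO, 15 min room temperature, EDTA-terminated.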

[2] = test system: human monocyte stimulated cytokine production (TNF-α); experiment: Monocyte assay (LPS-stimulated TNF-α production); format: cell-based; conditions: for IC50: 24 h, 200 ng/mL LPS, TNF-α by ELISA; for inhibition at 0.3 µM: read-out: inhibition at 300 nM in the monocyte assay
Method in brief: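 TNF-α release was measured by ELISA after 24 hrs at 37 C. Cells were stimulated with 200 ng/mL E. coli LPS, with compound added 30 minutes beforehand (0.1% DMSO vehicle). Cells were Ficoll/MACS-isolated CD14+ human monocytes adhered at 1×10^6 cells/mL, and viability was checked by trypan blue.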

IC50 [1] [µM] | IC50 [2] [nM] | SMILES | inhibition at 0.3 µM [2] [%]
≤ 10 | ≤ 1500 | CCS(=O)(=O)N1CCC(c2c[nH]c3c(C(N)=O)cc(-c4ccc(CN[C@@H](C)C(C)C)cc4)cc23)CC1 [Example 161, 5-[4-({[(1S)-1,2-dimethylpropyl]amino}methyl)phenyl]-3-[1-(ethylsulfonyl)-4-piperidinyl]-1H-indole-7-carboxamide trifluoroacetate] | –
≤ 10 | ≤ 1500 | CCS(=O)(=O)N1CCC(c2c[nH]c3c(C(N)=O)cc(-c4cccc(CN[C@H](C)C(C)C)c4)cc23)CC1 [Example 162, 5-[3-({[(1R)-1,2-dimethylpropyl]amino}methyl)phenyl]-3-[1-(ethylsulfonyl)-4-piperidinyl]-1H-indole-7-carboxamide trifluoroacetate] | –
≤ 10 | ≤ 1500 | CCS(=O)(=O)N1CCC(c2c[nH]c3c(C(N)=O)cc(-c4cccc(N)n4)cc23)CC1 [Example 163, 5-(6-amino-2-pyridinyl)-3-[1-(ethylsulfonyl)-4-piperidinyl]-1H-indole-7-carboxamide trifluoroacetate] | –
≤ 10 | > 1000 | CCS(=O)(=O)N1CCC(c2c[nH]c3c(C(N)=O)cc(-c4ccc(N(C)C)cc4)cc23)CC1 [Example 165, 5-[4-(dimethylamino)phenyl]-3-[1-(ethylsulfonyl)-4-piperidinyl]-1H-indole-7-carboxamide] | –
≤ 10 | ≤ 1500 | CCS(=O)(=O)N1CCC(c2c[nH]c3c(C(N)=O)cc(-c4cccc(N)c4)cc23)CC1 [Example 166, 5-(3-aminophenyl)-3-[1-(ethylsulfonyl)-4-piperidinyl]-1H-indole-7-carboxamide] | –
≤ 10 | ≤ 1500 | CCS(=O)(=O)N1CCC(c2c[nH]c3c(C(N)=O)cc(-c4ccc(CN5CCCC5C)s4)cc23)CC1 (centres unmarked) [Example 167, 3-[1-(ethylsulfonyl)-4-piperidinyl]-5-{5-[(2-methyl-1-pyrrolidinyl)methyl]-2-thienyl}-1H-indole-7-carboxamide] | –
≤ 10 | ≤ 1500 | CCNCc1ccc(-c2cc(C(N)=O)c3[nH]cc(C4CCN(S(=O)(=O)CC)CC4)c3c2)s1 [Example 168, 5-{5-[(ethylamino)methyl]-2-thienyl}-3-[1-(ethylsulfonyl)-4-piperidinyl]-1H-indole-7-carboxamide] | –
≤ 10 | ≤ 1500 | CCS(=O)(=O)N1CCC(c2c[nH]c3c(C(N)=O)cc(-c4ccc(CNC(C)C)s4)cc23)CC1 [Example 169, 3-[1-(ethylsulfonyl)-4-piperidinyl]-5-(5-{[(1-methylethyl)amino]methyl}-2-thienyl)-1H-indole-7-carboxamide] | –
≤ 10 | ≤ 1500 | CCS(=O)(=O)N1CCC(c2c[nH]c3c(C(N)=O)cc(-c4ccc(CNC5CC5)s4)cc23)CC1 [Example 170, 5-{5-[(cyclopropylamino)methyl]-2-thienyl}-3-[1-(ethylsulfonyl)-4-piperidinyl]-1H-indole-7-carboxamide] | –
≤ 10 | ≤ 1500 | CCS(=O)(=O)N1CCC(c2c[nH]c3c(C(N)=O)cc(-c4ccc(CNCC(C)(C)C)s4)cc23)CC1 [Example 171, 5-(5-{[(2,2-dimethylpropyl)amino]methyl}-2-thienyl)-3-[1-(ethylsulfonyl)-4-piperidinyl]-1H-indole-7-carboxamide] | –
≤ 10 | ≤ 1500 | CCS(=O)(=O)N1CCC(c2c[nH]c3c(C(N)=O)cc(-c4ccc(CNCC5CC5)s4)cc23)CC1 [Example 172, 5-(5-{[(cyclopropylmethyl)amino]methyl}-2-thienyl)-3-[1-(ethylsulfonyl)-4-piperidinyl]-1H-indole-7-carboxamide] | –
≤ 10 | – | CCS(=O)(=O)N1CCC(c2c[nH]c3c(C(N)=O)cc(-c4cncc(CNCCOC)c4)cc23)CC1 [Example 174, 3-[1-(ethylsulfonyl)-4-piperidinyl]-5-[5-({[2-(methyloxy)ethyl]amino}methyl)-3-pyridinyl]-1H-indole-7-carboxamide] | 0 to 60
≤ 10 | – | CCS(=O)(=O)N1CCC(c2c[nH]c3c(C(N)=O)cc(-c4cncc(CNCCCOC)c4)cc23)CC1 [Example 175, 3-[1-(ethylsulfonyl)-4-piperidinyl]-5-[5-({[3-(methyloxy)propyl]amino}methyl)-3-pyridinyl]-1H-indole-7-carboxamide] | 0 to 60
≤ 10 | – | CCS(=O)(=O)N1CCC(c2c[nH]c3c(C(N)=O)cc(-c4cncc(CN5CCOCC5)c4)cc23)CC1 [Example 176, 3-[1-(ethylsulfonyl)-4-piperidinyl]-5-[5-(4-morpholinylmethyl)-3-pyridinyl]-1H-indole-7-carboxamide] | 0 to 60
≤ 10 | – | CCNCc1cncc(-c2cc(C(N)=O)c3[nH]cc(C4CCN(S(=O)(=O)CC)CC4)c3c2)c1 [Example 177, 5-{5-[(ethylamino)methyl]-3-pyridinyl}-3-[1-(ethylsulfonyl)-4-piperidinyl]-1H-indole-7-carboxamide] | 0 to 60
≤ 10 | – | CCS(=O)(=O)N1CCC(c2c[nH]c3c(C(N)=O)cc(-c4cncc(CN5CCCC5C)c4)cc23)CC1 (centres unmarked) [Example 179, 3-[1-(ethylsulfonyl)-4-piperidinyl]-5-{5-[(2-methyl-1-pyrrolidinyl)methyl]-3-pyridinyl}-1H-indole-7-carboxamide] | 0 to 60
≤ 10 | – | CCS(=O)(=O)N1CCC(c2c[nH]c3c(C(N)=O)cc(-c4cncc(CNCC(C)C)c4)cc23)CC1 [Example 180, 3-[1-(ethylsulfonyl)-4-piperidinyl]-5-(5-{[(2-methylpropyl)amino]methyl}-3-pyridinyl)-1H-indole-7-carboxamide] | 0 to 60
≤ 10 | – | CCS(=O)(=O)N1CCC(c2c[nH]c3c(C(N)=O)cc(-c4cncc(CNCC(C)(C)C)c4)cc23)CC1 [Example 181, 5-(5-{[(2,2-dimethylpropyl)amino]methyl}-3-pyridinyl)-3-[1-(ethylsulfonyl)-4-piperidinyl]-1H-indole-7-carboxamide] | 0 to 60
≤ 10 | ≤ 1500 | CCC(C)CNCc1ccc(-c2cc(C(N)=O)c3[nH]cc(C4CCN(S(=O)(=O)CC)CC4)c3c2)s1 (centres unmarked) [Example 182, 3-[1-(ethylsulfonyl)-4-piperidinyl]-5-(5-{[(2-methylbutyl)amino]methyl}-2-thienyl)-1H-indole-7-carboxamide] | –
≤ 10 | – | CCCCCNCc1ccc(-c2cc(C(N)=O)c3[nH]cc(C4CCN(S(=O)(=O)CC)CC4)c3c2)s1 [Example 184, 3-[1-(ethylsulfonyl)-4-piperidinyl]-5-{5-[(pentylamino)methyl]-2-thienyl}-1H-indole-7-carboxamide] | 0 to 60
≤ 10 | – | CC[C@H](C)CNCc1ccc(-c2cc(C(N)=O)c3[nH]cc(C4CCN(S(=O)(=O)CC)CC4)c3c2)s1 [Example 185, 3-[1-(ethylsulfonyl)-4-piperidinyl]-5-[5-({[(2S)-2-methylbutyl]amino}methyl)-2-thienyl]-1H-indole-7-carboxamide] | 0 to 60
≤ 10 | – | CCCC(C)NCc1ccc(-c2cc(C(N)=O)c3[nH]cc(C4CCN(S(=O)(=O)CC)CC4)c3c2)s1 (centres unmarked) [Example 186, 3-[1-(ethylsulfonyl)-4-piperidinyl]-5-(5-{[(1-methylbutyl)amino]methyl}-2-thienyl)-1H-indole-7-carboxamide] | 0 to 60
≤ 10 | – | CCCCNCc1ccc(-c2cc(C(N)=O)c3[nH]cc(C4CCN(S(=O)(=O)CC)CC4)c3c2)s1 [Example 187, 5-{5-[(butylamino)methyl]-2-thienyl}-3-[1-(ethylsulfonyl)-4-piperidinyl]-1H-indole-7-carboxamide] | 0 to 60
≤ 10 | – | CCS(=O)(=O)N1CCC(c2c[nH]c3c(C(N)=O)cc(-c4ccc(CNCCOC)s4)cc23)CC1 [Example 188, 3-[1-(ethylsulfonyl)-4-piperidinyl]-5-[5-({[2-(methyloxy)ethyl]amino}methyl)-2-thienyl]-1H-indole-7-carboxamide] | 0 to 60

SMILES | IC50 [1] [µM] | IC50 [2] [nM] | inhibition at 0.3 µM [2] [%]
CCS(=O)(=O)N1CCC(c2c[nH]c3c(C(N)=O)cc(-c4cncc(CN(C)C)c4)cc23)CC1 [Example 178, 5-{5-[(dimethylamino)methyl]-3-pyridinyl}-3-[1-(ethylsulfonyl)-4-piperidinyl]-1H-indole-7-carboxamide] | ≤ 10 | – | 0 to 60
